From patent US20260083751A1, “ALLOSTERIC MODULATORS OF ANDROGEN RECEPTOR COACTIVATOR RECRUITMENT FOR CRPC THERAPY” (University of Pittsburgh – Of the Commonwealth System of …, priority 2022, published 2026)
Entries after “also recorded” stand apart in the source; their conditions may differ.

Legend:
Format in all cases: cell-based
[1] = biological target: T1, AR (Homo sapiens, UniProt P10275, T878A); assay: Western blotting cellular thermal shift assay for AR in C4-2 cells; details: for AR thermal stability at 46° C., compound alone (western blot): hits 20 μM for 1 h at 37° C.; for DHT-enhanced AR thermal stability at 46° C. (western blot): hits 20 μM, 10 nM DHT
T1 construct: the amount of soluble AR protein in heat shocked C4-2 cell lysates; endogenous in cells; host or cells: C4-2 castration resistant prostate cancer cells
T1 sequence (P10275 1-920 T878A): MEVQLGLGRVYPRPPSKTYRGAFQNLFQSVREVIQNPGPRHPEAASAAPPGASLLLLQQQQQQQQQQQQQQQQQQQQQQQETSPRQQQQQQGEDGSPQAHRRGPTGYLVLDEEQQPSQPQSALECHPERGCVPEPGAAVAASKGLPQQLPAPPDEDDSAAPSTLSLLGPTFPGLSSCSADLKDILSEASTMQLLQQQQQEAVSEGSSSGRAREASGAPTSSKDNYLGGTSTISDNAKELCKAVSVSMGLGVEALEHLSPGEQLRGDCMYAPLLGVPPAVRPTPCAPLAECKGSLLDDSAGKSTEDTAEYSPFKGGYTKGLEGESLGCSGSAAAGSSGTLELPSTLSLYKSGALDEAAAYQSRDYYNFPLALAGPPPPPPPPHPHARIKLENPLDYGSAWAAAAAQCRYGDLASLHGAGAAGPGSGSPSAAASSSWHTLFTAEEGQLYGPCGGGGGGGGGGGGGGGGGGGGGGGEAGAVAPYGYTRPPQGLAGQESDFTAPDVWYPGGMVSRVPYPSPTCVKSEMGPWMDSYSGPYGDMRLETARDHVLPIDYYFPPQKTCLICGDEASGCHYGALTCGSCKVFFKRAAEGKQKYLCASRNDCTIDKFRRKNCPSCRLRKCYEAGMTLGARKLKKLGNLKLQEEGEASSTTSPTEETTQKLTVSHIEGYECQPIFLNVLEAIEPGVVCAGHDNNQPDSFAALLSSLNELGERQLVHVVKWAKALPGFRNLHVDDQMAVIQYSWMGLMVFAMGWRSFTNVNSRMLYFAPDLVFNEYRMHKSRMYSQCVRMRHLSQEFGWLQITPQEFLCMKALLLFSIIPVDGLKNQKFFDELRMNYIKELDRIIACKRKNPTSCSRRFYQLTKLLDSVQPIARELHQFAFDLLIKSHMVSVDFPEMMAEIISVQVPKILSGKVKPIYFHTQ
Protocol: Western Blotting Cellular Thermal Shift Assays for TIF2 and AR Target Engagement in C4-2 Cells: C4-2 cells were harvested by trypsinization, washed 1× by centrifugation at 270×g for 5 min and resuspension in PBS, counted, centrifugated at 270× g for 5 min and resuspended at 7×10^6 cells per mL in Opti-MEM medium (Gibco, Gaithersburg, MD). 50 μL of C4-2 cell suspension (3.5×10^5 cells) were then transferred to PCR tubes that were placed in a T-100 thermocycler (BioRad, Hercules, CA) and a 2° C. interval temperature step gradient from 37° C. to 53° C. was applied. Cells were maintained at each step of the temperature gradient for 5 min and then tubes were withdrawn and placed on ice. 50 μL of cell lysis buffer, 500 mM NaCl, 1% NP-40, 1× protease inhibitor cocktail in PBS were added to the heat shocked cell suspensions in PCR tubes and placed on ice for an additional 30 min. Cell lysates were then centrifuged at 14,000 RPM (18,800×g) at 4° C. for 15 min and supernatants were transferred to new tubes and protein concentrations were determined in a bicinchoninic acid (BCA) assay. 45 μL of cell lysis supernatants were mixed with 15 μL of 5×SDS-PAGE sample buffer and placed in a heat block at 100° C. for 5 min. The protein constituents of heat shocked C4-2 cell lysis supernatants were separated by SDS-PAGE on 8% separating gels, transferred to nitrocellulose membranes that were blocked for 1 h at room temperature in 5% non-fat milk in TBST, and then probed overnight at 4° C. with a 1:1000 dilution of either rabbit anti-AR (Cell Signaling, Danvers, MA) or rabbit anti-TIF2 (Bethyl Laboratories, Waltham, MA) primary antibodies in TBST containing 5% non-fat milk. Membranes were then washed 3× in TBST buffer for 10 min, then incubated with a 1:10,000 dilution of the goat anti-rabbit IgG HRP conjugated secondary antibody (Invitrogen, Carlsbad, CA) in TBST containing 5% non-fat milk for 1 h at room temperature. Western blots were then washed 3× in TBST buffer and developed with Pierce ECL western blotting substrate. Images of ECL western blots were acquired on an iBright™ 1500 imaging system and quantified using the iBright™ image analysis software.

[2] = system: C4-2 cells; assay: Prostate cancer cell line growth inhibition assay, C4-2; details: C4-2, 72 h; read-out: AR positive C4-2 GI50
Protocol: (§1) Prostate Cancer Cell Line Growth Inhibition Assays: The PC-3, DU-145, LNCaP, C4-2, and 22Rv1 PC cell line growth inhibition assays have been described previously (Fancher et al., Assay Drug Dev Technol. 2016, 14:453-477; Fancher et al., Assay Drug Dev Technol. 2019, 17:364-386). On day 1, each PC cell line was harvested, counted, and seeded into two 384-well assay plates, a time zero (T0) and a time 72 h (T72) plate. PC cell lines were all seeded at 1,000 cells per well in 45 μL of tissue culture media in uncoated white clear bottom 384-well assay plates (VWR, #82050-076) using a Matrix electronic multichannel pipette (Thermo Fisher Scientific, Waltham, MA) and cultured overnight at 37° C., 5% CO2, and 95% humidity. On day 2, 25 μL of the CellTiter-Glo® (CTG) (Promega Corporation, Madison, WI) detection reagent was dispensed into the wells of the TO assay plate using a Matrix electronic multichannel pipette, and the RLUs were captured on the SpectraMax® M5e (Molecular Devices LLC, Sunnyvale, CA) microtiter plate reader. Also on day 2, 5 μL of compounds were transferred into the test wells of the T72 384-well assay plates which were returned to the incubator for 72 h. Control wells received DMSO alone. On day 5, 25 μL of the CTG detection reagent was dispensed into the wells of the T72 assay plate using a Matrix electronic multichannel pipette, and the RLU's were captured on the SpectraMax® M5e microtiter plate reader platform.
(§2) For the 96-well AR-LBD H^3-DHT radioligand binding assay, eight minimum and maximum plate control wells were utilized to normalize the data. […] To normalize the 72 h compound exposure PC growth inhibition data, the signals from the compound treated wells were processed and expressed as % of the T72 DMSO plate controls. IC50 and GI50 values for each of the bioassays were calculated using GraphPad Prism 9 software to plot and fit data to curves using the Sigmoidal dose response variable slope equation Y=Bottom+[Top-Bottom]/[1+10^(Log EC50−X)*HillSlope].

[3] = system: 22Rv1 cells; assay: Prostate cancer cell line growth inhibition assay, 22Rv1; details: Homo sapiens, 22Rv1, 72 h; read-out: AR positive 22Rv1 GI50
Protocol: as §1, §2

Row | Structure (SMILES) | AR thermal stability at 46° C., compound alone (western blot) [1] | DHT-enhanced AR thermal stability at 46° C. (western blot) [1] | GI50 [2] | GI50 [3]
1 | Cc1ccccc1-c1cc(O)c2c(c1)CN(c1nc(C(N)=O)cs1)CCO2 [Compound S1-1] | did not stabilize AR | only partially blocked DHT-enhanced AR stabilization; also recorded: inhibition of DHT-enhanced AR thermal stability | 30.7 µM | 42.5 µM
2 | Cc1nsc(NC(=O)N2CCC(Sc3ccccc3C)CC2)n1 [Compound S2-6] | did not stabilize AR | blocked DHT-enhanced AR thermal stabilization below DMSO baseline levels; also recorded: inhibition of DHT-enhanced AR thermal stability | 8.66 µM | 17.9 µM
3 | Cc1c(-c2ccccc2F)[nH]c2ccc(CNC(=O)CCc3cn[nH]c3)cc12 [Compound S3-11] | did not stabilize AR | only partially blocked DHT-enhanced AR stabilization; also recorded: inhibition of DHT-enhanced AR thermal stability | 6.92 µM | 13.2 µM
